{
  "source": "PubChem BioAssay (NCI)",
  "experiment_in_all_cases": "NCI-60 cell line screen, 48 h",
  "key": {"[1]": {"test_system": "UO-31 renal"}, "[2]": {"test_system": "PC-3 prostate"}, "[3]": {"test_system": "OVCAR-4 ovarian"}, "[4]": {"test_system": "SN12C renal"}, "[5]": {"test_system": "LOX IMVI melanoma"}, "[6]": {"test_system": "RPMI-8226 leukemia"}, "[7]": {"test_system": "CCRF-CEM leukemia"}, "[8]": {"test_system": "MCF7 breast"}, "[9]": {"test_system": "HS 578T breast"}, "[10]": {"test_system": "EKVX NSCLC"}},
  "note": "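All cell lines were grown in 96-well plates and treated with compound for 48 hours. GI50 = concentration required for 50% inhibition of growth. At the TGI there is no net growth.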",
  "data": [
    {"smiles": "COc1ccc(C2=N[C@@H](Cc3ccccc3)C(=O)Nc3ccsc32)cc1", "values": [
      {"measurement": "GI50", "setting": "[1]", "result": 8.7, "unit": "µM"},
      {"measurement": "TGI", "setting": "[1]", "result": 34.6, "unit": "µM"},
      {"measurement": "GI50", "setting": "[2]", "result": 3.78, "unit": "µM"},
      {"measurement": "TGI", "setting": "[2]", "result": 25.2, "unit": "µM"},
      {"measurement": "GI50", "setting": "[3]", "result": 11.2, "unit": "µM"},
      {"measurement": "TGI", "setting": "[3]", "result": 83, "unit": "µM"},
      {"measurement": "GI50", "setting": "[4]", "result": 8.28, "unit": "µM"},
      {"measurement": "TGI", "setting": "[4]", "result": 25.7, "unit": "µM"},
      {"measurement": "GI50", "setting": "[5]", "result": 6.48, "unit": "µM"},
      {"measurement": "TGI", "setting": "[5]", "result": 22, "unit": "µM"},
      {"measurement": "GI50", "setting": "[6]", "result": 3.29, "unit": "µM"},
      {"measurement": "TGI", "setting": "[6]", "result": 18.8, "unit": "µM"},
      {"measurement": "GI50", "setting": "[7]", "result": 3.46, "unit": "µM"},
      {"measurement": "TGI", "setting": "[7]", "result": 28.1, "unit": "µM"},
      {"measurement": "GI50", "setting": "[8]", "result": 3.73, "unit": "µM"},
      {"measurement": "TGI", "setting": "[8]", "result": 25.4, "unit": "µM"},
      {"measurement": "GI50", "setting": "[9]", "result": 3.24, "unit": "µM"},
      {"measurement": "TGI", "setting": "[9]", "result": 28.8, "unit": "µM"}
    ]},
    {"smiles": "CC(C)(C)c1ccc(S(=O)(=O)Oc2ccc3c4c(c(=O)oc3c2)CCCCC4)cc1", "values": [
      {"measurement": "GI50", "setting": "[1]", "result": 12.7, "unit": "µM"},
      {"measurement": "TGI", "setting": "[1]", "result": 44, "unit": "µM"},
      {"measurement": "GI50", "setting": "[2]", "result": 2.22, "unit": "µM"},
      {"measurement": "TGI", "setting": "[2]", "result": "> 100", "unit": "µM"},
      {"measurement": "GI50", "setting": "[3]", "result": 8.13, "unit": "µM"},
      {"measurement": "TGI", "setting": "[3]", "result": 40.7, "unit": "µM"},
      {"measurement": "GI50", "setting": "[4]", "result": 29.3, "unit": "µM"},
      {"measurement": "TGI", "setting": "[4]", "result": "> 100", "unit": "µM"},
      {"measurement": "GI50", "setting": "[5]", "result": 32.5, "unit": "µM"},
      {"measurement": "TGI", "setting": "[5]", "result": "> 100", "unit": "µM"},
      {"measurement": "GI50", "setting": "[6]", "result": 3.18, "unit": "µM"},
      {"measurement": "TGI", "setting": "[6]", "result": "> 100", "unit": "µM"},
      {"measurement": "GI50", "setting": "[7]", "result": "> 100", "unit": "µM"},
      {"measurement": "TGI", "setting": "[7]", "result": "> 100", "unit": "µM"},
      {"measurement": "GI50", "setting": "[8]", "result": 18.2, "unit": "µM"},
      {"measurement": "TGI", "setting": "[8]", "result": "> 100", "unit": "µM"},
      {"measurement": "GI50", "setting": "[9]", "result": 15.2, "unit": "µM"},
      {"measurement": "TGI", "setting": "[9]", "result": 74.3, "unit": "µM"}
    ]},
    {"smiles": "COc1cc(/C=C\\c2cc(OC)c(OC)c(OC)c2)cc(N/C=C\\C(=O)c2ccc(OC(F)(F)F)cc2)c1OC", "values": [
      {"measurement": "GI50", "setting": "[1]", "result": 5.42, "unit": "µM"},
      {"measurement": "TGI", "setting": "[1]", "result": "> 100", "unit": "µM"},
      {"measurement": "GI50", "setting": "[3]", "result": 7.54, "unit": "µM"},
      {"measurement": "TGI", "setting": "[3]", "result": "> 100", "unit": "µM"},
      {"measurement": "GI50", "setting": "[4]", "result": 4.85, "unit": "µM"},
      {"measurement": "TGI", "setting": "[4]", "result": "> 100", "unit": "µM"},
      {"measurement": "GI50", "setting": "[5]", "result": 5.95, "unit": "µM"},
      {"measurement": "TGI", "setting": "[5]", "result": "> 100", "unit": "µM"},
      {"measurement": "GI50", "setting": "[6]", "result": 3.66, "unit": "µM"},
      {"measurement": "TGI", "setting": "[6]", "result": 19.6, "unit": "µM"},
      {"measurement": "GI50", "setting": "[7]", "result": 3.55, "unit": "µM"},
      {"measurement": "TGI", "setting": "[7]", "result": "> 100", "unit": "µM"},
      {"measurement": "GI50", "setting": "[8]", "result": 4.08, "unit": "µM"},
      {"measurement": "TGI", "setting": "[8]", "result": "> 100", "unit": "µM"},
      {"measurement": "GI50", "setting": "[9]", "result": 6.44, "unit": "µM"},
      {"measurement": "TGI", "setting": "[9]", "result": "> 100", "unit": "µM"}
    ]},
    {"smiles": "CCC(C)CCOC(=O)c1ccc(N=Cc2ccc(C=Nc3ccc(C(=O)OCCC(C)CC)cc3)cc2)cc1", "note": "(configuration not stated)", "values": [
      {"measurement": "TGI", "setting": "[1]", "result": "> 100", "unit": "µM"},
      {"measurement": "TGI", "setting": "[3]", "result": "> 100", "unit": "µM"},
      {"measurement": "TGI", "setting": "[4]", "result": "> 100", "unit": "µM"},
      {"measurement": "TGI", "setting": "[5]", "result": "> 100", "unit": "µM"},
      {"measurement": "TGI", "setting": "[6]", "result": "> 100", "unit": "µM"},
      {"measurement": "TGI", "setting": "[7]", "result": "> 100", "unit": "µM"},
      {"measurement": "TGI", "setting": "[10]", "result": "> 100", "unit": "µM"}
    ]},
    {"smiles": "Cc1c(Cl)cccc1NC(=O)C(=O)C(C(=O)c1ccccc1-c1ccccc1)C1OC(=O)c2ccccc21", "note": "(configuration not stated)", "values": [
      {"measurement": "TGI", "setting": "[1]", "result": 49.4, "unit": "µM"},
      {"measurement": "TGI", "setting": "[5]", "result": 39.5, "unit": "µM"},
      {"measurement": "TGI", "setting": "[6]", "result": 59.1, "unit": "µM"},
      {"measurement": "TGI", "setting": "[7]", "result": 96.9, "unit": "µM"},
      {"measurement": "TGI", "setting": "[10]", "result": 59, "unit": "µM"}
    ]},
    {"smiles": "Cn1cc(C(=O)c2ccccc2)c2ccccc2c1=O", "values": [
      {"measurement": "TGI", "setting": "[3]", "result": "> 100", "unit": "µM"},
      {"measurement": "TGI", "setting": "[4]", "result": "> 100", "unit": "µM"},
      {"measurement": "TGI", "setting": "[5]", "result": "> 100", "unit": "µM"},
      {"measurement": "TGI", "setting": "[6]", "result": "> 100", "unit": "µM"},
      {"measurement": "TGI", "setting": "[7]", "result": "> 100", "unit": "µM"},
      {"measurement": "TGI", "setting": "[10]", "result": "> 100", "unit": "µM"}
    ]},
    {"smiles": "COc1ccc(C2=C(Cl)c3cc(OC)c(OC)cc3C2OC)cc1OC", "note": "(configuration not stated)", "values": [
      {"measurement": "TGI", "setting": "[1]", "result": "> 100", "unit": "µM"},
      {"measurement": "TGI", "setting": "[3]", "result": "> 100", "unit": "µM"},
      {"measurement": "TGI", "setting": "[4]", "result": "> 100", "unit": "µM"},
      {"measurement": "TGI", "setting": "[5]", "result": "> 100", "unit": "µM"},
      {"measurement": "TGI", "setting": "[6]", "result": "> 100", "unit": "µM"},
      {"measurement": "TGI", "setting": "[7]", "result": "> 100", "unit": "µM"},
      {"measurement": "TGI", "setting": "[10]", "result": "> 100", "unit": "µM"}
    ]},
    {"smiles": "O=C(NCCCCCCCCCCCCNC(=O)c1cccc2ccccc12)c1cccc2ccccc12", "values": [
      {"measurement": "TGI", "setting": "[1]", "result": "> 61", "unit": "µM"},
      {"measurement": "TGI", "setting": "[3]", "result": 20.5, "unit": "µM"},
      {"measurement": "TGI", "setting": "[4]", "result": "> 100", "unit": "µM"},
      {"measurement": "TGI", "setting": "[5]", "result": "> 100", "unit": "µM"},
      {"measurement": "TGI", "setting": "[6]", "result": "> 100", "unit": "µM"},
      {"measurement": "TGI", "setting": "[7]", "result": "> 100", "unit": "µM"},
      {"measurement": "TGI", "setting": "[10]", "result": "> 100", "unit": "µM"}
    ]},
    {"smiles": "O=C1NC(Cc2ccc(O)cc2)C(=O)N2CCCC12", "note": "(configuration not stated)", "values": [
      {"measurement": "TGI", "setting": "[1]", "result": "> 100", "unit": "µM"},
      {"measurement": "TGI", "setting": "[3]", "result": "> 100", "unit": "µM"},
      {"measurement": "TGI", "setting": "[4]", "result": "> 100", "unit": "µM"},
      {"measurement": "TGI", "setting": "[5]", "result": "> 100", "unit": "µM"},
      {"measurement": "TGI", "setting": "[6]", "result": "> 100", "unit": "µM"},
      {"measurement": "TGI", "setting": "[7]", "result": "> 100", "unit": "µM"},
      {"measurement": "TGI", "setting": "[10]", "result": "> 100", "unit": "µM"}
    ]},
    {"smiles": "Cc1nc(-n2nc(-c3ccccc3)cc2-c2ccccc2)sc1C(=O)/C=C/c1ccc(/C=C/C(=O)c2sc(-n3nc(-c4ccccc4)cc3-c3ccccc3)nc2C)cc1", "values": [
      {"measurement": "TGI", "setting": "[1]", "result": 42, "unit": "µM"},
      {"measurement": "TGI", "setting": "[3]", "result": "> 100", "unit": "µM"},
      {"measurement": "TGI", "setting": "[4]", "result": 43.5, "unit": "µM"},
      {"measurement": "TGI", "setting": "[5]", "result": 40.6, "unit": "µM"},
      {"measurement": "TGI", "setting": "[7]", "result": 96.7, "unit": "µM"},
      {"measurement": "TGI", "setting": "[10]", "result": "> 100", "unit": "µM"}
    ]},
    {"smiles": "Cc1cn(C2CC(O)C(COC(=O)c3ccccc3)O2)c(=O)[nH]c1=O", "note": "(configuration not stated)", "values": [
      {"measurement": "TGI", "setting": "[3]", "result": "> 100", "unit": "µM"},
      {"measurement": "TGI", "setting": "[4]", "result": "> 100", "unit": "µM"},
      {"measurement": "TGI", "setting": "[5]", "result": "> 100", "unit": "µM"},
      {"measurement": "TGI", "setting": "[6]", "result": "> 100", "unit": "µM"},
      {"measurement": "TGI", "setting": "[7]", "result": "> 100", "unit": "µM"}
    ]}
  ]
}
